According to US8822517B2, “Arylosulfonamides for the treatment of CNS diseases” (Adamed SP. Z O.O., priority 2010, dated 2014):

Experiments:
[1] = biological target: dopaminergic D2 receptor (Homo sapiens, UniProt P14416); test: Binding assay D2S (h), [3H]methyl-spiperone, HEK-293 cells; set-up: expressed in transfected cells; host or cells: HEK-293 cells; conditions: read-out: D2 [%]
How it was run: (§1)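 Detection relied on scintillation counting of bound ligand. Compounds at 1×10^−6 M were evaluated against specific binding, i.e. total binding corrected for the nonspecific fraction seen with excess unlabelled ligand.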

[2] = biological target: dopaminergic D3 receptor (Homo sapiens, UniProt P35462); test: Binding assay D3 (h), [3H]methyl-spiperone, CHO cells; set-up: expressed in transfected cells; host or cells: CHO cells; conditions: read-out: D3 [%]
How it was run: as §1

[3] = biological target: serotoninergic 5-HT7 receptor (Homo sapiens, UniProt P34969); test: Binding assay 5-HT7 (h), [3H]LSD, CHO cells; set-up: expressed in transfected cells; host or cells: CHO cells; conditions: read-out: 5-HT7
How it was run: as §1

[4] = biological target: T1, serotoninergic 5-HT1A receptor (Homo sapiens, UniProt P08908); test: Binding assay 5-HT1A (h), [3H]8-OH-DPAT, HEK-293 cells; set-up: expressed in transfected cells; host or cells: HEK-293 cells; conditions: read-out: 5-HT1A
T1 sequence (P08908 1-422): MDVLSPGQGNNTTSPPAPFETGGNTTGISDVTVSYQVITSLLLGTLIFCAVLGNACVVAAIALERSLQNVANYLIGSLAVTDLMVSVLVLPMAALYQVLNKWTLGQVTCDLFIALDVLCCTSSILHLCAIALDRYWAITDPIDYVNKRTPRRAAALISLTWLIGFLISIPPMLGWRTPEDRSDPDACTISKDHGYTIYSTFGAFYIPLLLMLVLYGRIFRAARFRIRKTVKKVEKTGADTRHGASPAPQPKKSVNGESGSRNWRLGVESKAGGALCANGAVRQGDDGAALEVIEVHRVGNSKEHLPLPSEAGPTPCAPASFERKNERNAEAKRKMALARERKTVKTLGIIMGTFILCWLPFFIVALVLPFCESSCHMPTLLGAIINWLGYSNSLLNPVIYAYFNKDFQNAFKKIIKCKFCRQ
How it was run: as §1

[5] = biological target: T2, serotonine transporter (SERT) receptor (Homo sapiens, UniProt P31645); test: Binding assay SERT (h), [3H]imipramine, CHO cells; conditions: read-out: SERT [%]
T2 construct: expressed in transfected cells; host or cells: CHO cells
How it was run: as §1

[6] = system: adrenergic α1 receptor; test: Binding assay α1 (non-selective), [3H]prazosin, rat cerebral cortex; conditions: percent inhibition of control specific binding; compounds tested at 1×10^−6 M
How it was run: as §1

[7] = biological target: serotoninergic 5-HT6 receptor (Homo sapiens, UniProt P50406); test: Binding assay 5-HT6 (h), [3H]LSD, CHO cells; set-up: expressed in transfected cells; host or cells: CHO cells; conditions: read-out: 5-HT6
How it was run: as §1

[8] = biological target: serotoninergic 5-HT2A receptor (Homo sapiens, UniProt P28223); test: Binding assay 5-HT2A (h), [3H]ketanserin, HEK-293 cells; set-up: expressed in transfected cells; host or cells: HEK-293 cells; conditions: read-out: 5-HT2A
How it was run: as §1

Sequence of dopaminergic D3 receptor (P35462 whole entry): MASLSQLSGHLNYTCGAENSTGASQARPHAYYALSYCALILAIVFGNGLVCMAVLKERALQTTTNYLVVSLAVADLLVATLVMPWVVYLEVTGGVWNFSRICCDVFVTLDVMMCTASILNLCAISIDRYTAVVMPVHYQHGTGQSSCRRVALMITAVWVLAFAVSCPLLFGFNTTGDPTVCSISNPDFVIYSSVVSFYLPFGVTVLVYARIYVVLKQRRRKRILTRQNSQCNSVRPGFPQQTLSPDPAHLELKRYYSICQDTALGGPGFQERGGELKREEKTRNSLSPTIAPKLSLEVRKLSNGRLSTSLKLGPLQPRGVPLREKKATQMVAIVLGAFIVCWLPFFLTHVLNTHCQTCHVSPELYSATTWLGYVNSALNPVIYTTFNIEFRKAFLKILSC
T2 sequence (P31645 whole entry): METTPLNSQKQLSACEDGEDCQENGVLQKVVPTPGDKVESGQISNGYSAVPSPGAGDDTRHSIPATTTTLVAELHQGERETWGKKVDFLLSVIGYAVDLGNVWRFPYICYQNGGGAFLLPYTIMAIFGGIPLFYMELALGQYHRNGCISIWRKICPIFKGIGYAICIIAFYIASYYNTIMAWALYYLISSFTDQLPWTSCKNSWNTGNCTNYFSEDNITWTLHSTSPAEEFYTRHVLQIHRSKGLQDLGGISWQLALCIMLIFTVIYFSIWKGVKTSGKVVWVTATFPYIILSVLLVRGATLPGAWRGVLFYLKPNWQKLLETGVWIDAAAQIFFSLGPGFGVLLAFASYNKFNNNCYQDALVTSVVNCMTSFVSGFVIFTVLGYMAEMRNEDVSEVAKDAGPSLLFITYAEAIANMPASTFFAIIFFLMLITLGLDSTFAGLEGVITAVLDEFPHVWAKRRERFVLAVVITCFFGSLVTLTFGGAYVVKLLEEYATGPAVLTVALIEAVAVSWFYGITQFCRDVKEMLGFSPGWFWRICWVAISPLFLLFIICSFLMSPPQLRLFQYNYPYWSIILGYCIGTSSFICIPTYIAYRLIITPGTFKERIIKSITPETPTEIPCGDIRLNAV
Sequence of serotoninergic 5-HT6 receptor (P50406 whole entry): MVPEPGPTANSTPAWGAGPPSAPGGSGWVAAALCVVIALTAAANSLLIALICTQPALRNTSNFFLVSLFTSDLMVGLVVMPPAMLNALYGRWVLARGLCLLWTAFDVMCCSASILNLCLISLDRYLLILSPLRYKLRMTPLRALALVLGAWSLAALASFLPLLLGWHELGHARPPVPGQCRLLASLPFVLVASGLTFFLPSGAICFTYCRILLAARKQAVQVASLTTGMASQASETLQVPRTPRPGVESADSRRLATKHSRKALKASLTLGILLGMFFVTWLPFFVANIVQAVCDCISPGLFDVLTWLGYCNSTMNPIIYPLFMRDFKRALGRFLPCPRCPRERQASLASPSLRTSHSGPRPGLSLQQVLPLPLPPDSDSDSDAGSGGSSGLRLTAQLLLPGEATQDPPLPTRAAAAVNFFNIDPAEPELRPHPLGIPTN
Sequence of serotoninergic 5-HT7 receptor (P34969 whole entry): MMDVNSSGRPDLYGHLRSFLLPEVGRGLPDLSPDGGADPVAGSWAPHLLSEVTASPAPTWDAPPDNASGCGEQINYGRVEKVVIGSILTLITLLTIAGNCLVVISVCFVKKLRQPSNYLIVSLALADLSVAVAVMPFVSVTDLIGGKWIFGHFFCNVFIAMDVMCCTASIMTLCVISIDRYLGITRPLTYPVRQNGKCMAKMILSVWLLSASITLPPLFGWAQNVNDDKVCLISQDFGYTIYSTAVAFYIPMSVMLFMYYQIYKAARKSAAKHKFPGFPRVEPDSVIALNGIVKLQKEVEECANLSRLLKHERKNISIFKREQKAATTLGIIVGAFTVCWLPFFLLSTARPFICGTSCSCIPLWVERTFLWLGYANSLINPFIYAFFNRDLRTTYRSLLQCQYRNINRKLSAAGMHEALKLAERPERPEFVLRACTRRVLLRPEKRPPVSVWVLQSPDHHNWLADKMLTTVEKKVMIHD
Sequence of serotoninergic 5-HT2A receptor (P28223 whole entry): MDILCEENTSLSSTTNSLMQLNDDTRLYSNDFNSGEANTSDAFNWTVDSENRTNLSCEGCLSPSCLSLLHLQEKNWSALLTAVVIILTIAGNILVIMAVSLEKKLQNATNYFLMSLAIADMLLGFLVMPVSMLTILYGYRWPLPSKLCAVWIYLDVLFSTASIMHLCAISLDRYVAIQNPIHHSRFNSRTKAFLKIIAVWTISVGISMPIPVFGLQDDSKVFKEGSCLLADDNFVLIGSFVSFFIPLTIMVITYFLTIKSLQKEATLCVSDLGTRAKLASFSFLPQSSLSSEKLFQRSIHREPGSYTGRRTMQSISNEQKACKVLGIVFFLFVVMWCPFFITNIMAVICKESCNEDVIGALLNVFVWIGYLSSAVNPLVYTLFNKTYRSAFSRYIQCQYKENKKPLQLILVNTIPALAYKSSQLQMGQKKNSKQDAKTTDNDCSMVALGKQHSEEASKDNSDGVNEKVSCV
Sequence of dopaminergic D2 receptor (P14416 1-414 isoform P14416-2): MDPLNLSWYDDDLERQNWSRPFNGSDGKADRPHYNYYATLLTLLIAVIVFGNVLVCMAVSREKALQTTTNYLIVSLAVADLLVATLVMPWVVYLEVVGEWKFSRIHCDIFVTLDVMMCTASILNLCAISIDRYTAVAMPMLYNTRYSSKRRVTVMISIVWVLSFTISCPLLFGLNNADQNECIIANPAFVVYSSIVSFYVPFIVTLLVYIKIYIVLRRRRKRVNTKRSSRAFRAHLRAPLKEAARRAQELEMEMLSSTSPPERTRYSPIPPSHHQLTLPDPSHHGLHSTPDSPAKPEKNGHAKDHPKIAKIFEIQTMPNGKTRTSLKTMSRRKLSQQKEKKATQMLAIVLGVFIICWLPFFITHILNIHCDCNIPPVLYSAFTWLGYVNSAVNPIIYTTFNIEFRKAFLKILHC

SMILES | inhibition at 1 µM [1] [%] | inhibition at 1 µM [2] [%] | inhibition at 1 µM [3] [%] | inhibition at 1 µM [4] [%] | inhibition at 1 µM [5] [%] | α1 [%] [6] [%] | inhibition at 1 µM [7] [%] | inhibition at 1 µM [8] [%]
N#Cc1cccc(S(=O)(=O)NCCCCN2CCC(c3noc4cc(F)ccc34)CC2)c1 [Compound 306, 3-Cyano-N-[4-[4-(6-fluoro-1,2-benzoxazol-3-yl)piperidin-1-yl]butyl]benzenesulphonamide] | 106 | 99 | 89 | 44 | -10 | 99 | 81 | 97
O=S(=O)(NCCCCN1CCC(c2noc3cc(F)ccc23)CC1)c1ccsc1 [Compound 307, N-[4-[4-(6-Fluoro-1,2-benzoxazol-3-yl)piperidin-1-yl]butyl]thiophene-3-sulphonamide] | 88 | 95 | 85 | 73 | -3 | 105 | 76 | 99
Cc1cc(S(=O)(=O)NCCCCN2CCC(c3noc4cc(F)ccc34)CC2)c(C)s1 [Compound 309, N-[4-[4-(6-Fluoro-1,2-benzoxazol-3-yl)piperidin-1-yl]butyl]-2,5-dimethyl-thiophene-3-sulphonamide] | 84 | 90 | 87 | 64 | -5 | 103 | 79 | 88
Cn1ccc2c(S(=O)(=O)NCCCCN3CCC(c4noc5cc(F)ccc45)CC3)cccc21 [Compound 310, N-[4-[4-(6-Fluoro-1,2-benzoxazol-3-yl)piperidin-1-yl]butyl]-1-methyl-indole-4-sulphonamide] | 96 | 97 | 89 | 91 | 57 | 107 | 89 | 99
Cn1ccc2ccc(S(=O)(=O)NCCCCN3CCC(c4noc5cc(F)ccc45)CC3)cc21 [Compound 311, N-[4-[4-(6-Fluoro-1,2-benzoxazol-3-yl)piperidin-1-yl]butyl]-1-methyl-indole-6-sulphonamide] | 105 | 101 | 95 | 49 | 34 | 107 | 99 | 105
O=S(=O)(NCCCCN1CCC(c2noc3cc(F)ccc23)CC1)c1ccc2c(c1)CCO2 [Compound 317, N-[4-[4-(6-Fluoro-1,2-benzoxazol-3-yl)piperidin-1-yl]butyl]-2,3-dihydrobenzofuran-5-sulphonamide] | 105 | 97 | 89 | 45 | -17 | 99 | 78 | 98
O=S(=O)(NCCCCN1CCC(c2noc3cc(F)ccc23)CC1)c1cccc2scnc12 [Compound 318, N-[4-[4-(6-Fluoro-1,2-benzoxazol-3-yl)piperidin-1-yl]butyl]-1,3-benzothiazole-4-sulphonamide] | 67 | 95 | 92 | 96 | 45 | 98 | 76 | 89
O=S(=O)(NCCCCN1CCC(c2noc3cc(F)ccc23)CC1)c1ccc2cn[nH]c2c1 [Compound 319, N-[4-[4-(6-Fluoro-1,2-benzoxazol-3-yl)piperidin-1-yl]butyl]-1H-indazole-6-sulphonamide] | 109 | 90 | 90 | 55 | 8 | 94 | 87 | 88
